The values that follow come from PubChem BioAssay (NCI).

Common to all, as to test: NCI-60 cell line screen, 48 h
For assay [1], the system named is CAKI-1 renal.
Assay [2] concerns HCT-116 colon.
Assay [3] deals with HCT-15 colon.
Assay [4] has as its system HT29 colon.
Assay [5] concerns PC-3 prostate.
Assay [6] has as its system RPMI-8226 leukemia.
Assay [7] has as its system SK-MEL-28 melanoma.
For assay [8], the system named is SNB-19 CNS.
The subject of assay [9] is TK-10 renal.

“And” between values parts separate entries of the source, which are not always exact repeats. Equal entries are not always repeated.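 Test compounds were applied to cells in 96-well plates for 48 hours at 5 doses. GI50 is the concentration that inhibits growth by half. At the TGI there is no net growth.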

In the case of `CCOC(=O)CCC(NC(=O)c1ccc(N=Cc2nc3cc(C(F)(F)F)ccc3nc2-c2ccccc2)cc1)C(=O)OCC` (centres undefined), the GI50 in assay [1] is over 100 µM; in assay [2] it was 44.7 µM; in assay [3], over 100 µM; in assay [4] it was over 100 µM; in [6], over 100 µM; in assay [7], over 100 µM. The figures for the GI50 in assay [8] and in assay [9] were 8.51 µM and 21.6 µM, respectively. Besides, the TGI in [1] is 50 µM and > 100 µM; in [2], 19.4 µM and > 100 µM; in assay [3], over 100 µM; in assay [4], over 100 µM; in assay [5], over 50 µM; in [6] it was over 100 µM. Also, the TGI in assay [7] was over 100 µM; in assay [8], 29.2 µM and 31.9 µM; in assay [9] it was 29.5 µM and 58.2 µM.

As to `Cc1cc(Br)cc(C)c1NC(=O)C(=O)CC(=O)c1sc(-n2nc(-c3ccccc3)cc2-c2ccccc2)nc1C`, the TGI in assay [1], in [2], in assay [3], in [4], in [6] and in [7] was over 100 µM in each case. Besides, the TGI in assay [8] and in assay [9] was over 100 µM throughout.

On to `O=[N+]([O-])c1ccc(-c2ccc(/C=N/n3c(-c4ccc(Cl)cc4)n[nH]c3=S)o2)cc1`, for which the TGI in assay [1] was over 90.1 µM; in assay [2], 43.6 µM; in assay [3], over 100 µM; in assay [4], over 55.2 µM; in assay [6] it was over 31.6 µM; in assay [7] it was 34 µM. Moreover, the TGI in assay [8] is over 72.7 µM; in assay [9], over 64.7 µM.

On to `N[C@H]1C2C3CC4C5CC(C42)C1(c1ccccc1)C53` (some centres undefined), for which the TGI in [1], in assay [2], in [3], in [4], in assay [6] and in [7] was over 100 µM throughout. Further, the TGI in assay [8] and in assay [9] was over 100 µM throughout.

`O=S(=O)(O)CS(=O)(=O)OCCCl`: the TGI in assay [1], in assay [2], in [4], in assay [6], in assay [7] and in assay [8] was over 100 µM throughout. The compound also showed a TGI in assay [9] of over 100 µM.

As for `CCOC(=O)/C(C1=N[C@H](C(=O)OCC)CS1)=C(\C)O`, the TGI in assay [1], in [2], in assay [3], in assay [4], in [6] and in assay [7] was over 100 µM each time. The TGI in assay [8] was over 100 µM.

In the case of `CC(=O)Oc1c(C)n(CCCl)ccc1=O`, the TGI in [1], in assay [2], in assay [3], in assay [4], in [6] and in assay [7] was over 100 µM each time. For the same compound, the results for the TGI in [8] and in [9] were over 100 µM and 73.8 µM, respectively.

Consider `CCOC(=O)C1C=C2O[C@@H]3OC4(CCCCC4)O[C@@H]3C2[C@H]2C(=O)C=CC(=O)[C@@]12C(=O)OC` (some centres undefined), for which the TGI in assay [1] came out at 31.3 µM; in assay [2], 19.1 µM; in [3], 28.8 µM; in [4] it was 19.4 µM; in assay [6], 8.06 µM; in [7], 30 µM. Besides, the TGI turned out to be 22.9 µM in [8] and 26.5 µM in assay [9].

For the compound `CC1=C(C(=O)Nc2ccc([N+](=O)[O-])cc2)C(c2ccco2)C(C(=O)Nc2ccc([N+](=O)[O-])cc2)=C(C)N1`, the TGI in assay [1] was 90.1 µM; in assay [4], over 100 µM; in assay [6] it was 25.5 µM; in assay [7], over 100 µM; in assay [8] it was over 100 µM; in [9], 94.3 µM.

As to `CCCCN(CCCC)C(=O)C(=O)CC(=O)c1ccc(Br)cc1`, the TGI in [1], in [2], in assay [3], in assay [4], in assay [6] and in [8] was over 100 µM each time. The TGI in assay [9] is over 100 µM.

Consider `O=C1C2=C(c3ccccc31)C(c1ccc(Cl)cc1)N1C(=O)CCSC1=N2` (centres undefined), for which the TGI in assay [1], in assay [2], in [3], in [4], in assay [6] and in assay [7] was over 100 µM in each case. Also, the TGI in assay [8] and in assay [9] was over 100 µM in each case.

In the case of `O=C(O)CN(c1ccc(Cl)cc1)S(=O)(=O)c1ccccc1`, the TGI in [1], in assay [3], in assay [4], in [6], in assay [7] and in [8] was over 100 µM in each case. In assay [9], the TGI is over 100 µM.

With `COC1C=C(Nc2cccc(Cl)c2)C(=O)C1` (centres undefined), the TGI in assay [1], in assay [2], in assay [4], in assay [7], in [8] and in assay [9] was over 100 µM each time.

As to `Cn1nc(-c2ccccc2NC(=O)C(F)(F)F)c(=O)n(C)c1=S`, the TGI in [1] was 89.4 µM; in assay [2] it was over 100 µM; in assay [4], 53.8 µM; in assay [7], 30.1 µM; in assay [8], over 100 µM; in [9] it was over 100 µM.

Take `CC1=C(C(=O)Nc2ccccc2)C(c2ccc3c(c2)OCO3)C(C(=O)Nc2ccccc2)=C(C)N1`: the TGI is over 100 µM in [1]; over 100 µM in assay [3]; over 100 µM in assay [4]; 79.4 µM in assay [6]; over 100 µM in assay [7]; over 100 µM in [8]. In addition, the TGI in assay [9] was over 100 µM.

`Cc1cc(C)nc(NS(=O)(=O)c2ccc(Nc3c4ccccc4nc4c(C(=O)Nc5ccc(S(N)(=O)=O)cc5)cccc34)cc2)n1`: the TGI in [1], in [2], in assay [3], in assay [4], in assay [6] and in [7] was over 100 µM in each case. Besides, the TGI in assay [8] is over 100 µM.

Regarding `C=C(c1ccccc1N)[C@@]1(O)C[C@H](/C(=C\C)CO)C[C@@H]1NCc1ccccc1`, the TGI in [2] was 28.7 µM; in assay [3], over 100 µM; in assay [4] it was 32.7 µM; in [6], 42.5 µM; in [7] it was 33 µM; in assay [8], 79.5 µM. In assay [9], this compound registered a TGI of 44.1 µM.

Consider `COc1c(OC(C)=O)ccc(/C=C2\N=C(C)OC2=O)c1[N+](=O)[O-]`, for which the TGI in assay [1], in assay [2], in assay [3], in assay [4], in assay [6] and in assay [8] was over 100 µM each time. Further, the TGI in assay [9] was over 100 µM.

`NC(N)=NS(=O)(=O)c1ccc(NC(=O)c2cccc3c(Nc4ccc(S(=O)(=O)N=C(N)N)cc4)c4ccc(Cl)cc4nc23)cc1`: the TGI in [1], in assay [2], in assay [3], in [4], in assay [6] and in assay [7] was over 100 µM throughout. Besides, the TGI in assay [8] and in [9] was over 100 µM throughout.

`O=C1C2=C(c3ccccc31)C(c1cccc(Cl)c1)NC(=S)N2` (centres undefined): the TGI in assay [1], in [2], in [3], in assay [4], in assay [6] and in [7] was over 100 µM in each case. In addition, the TGI in assay [8] and in assay [9] was over 100 µM throughout.

With `COc1cc2cc(Oc3ccc(NC(=O)Nc4cccc(C(F)(F)F)c4)cc3)c(C)nc2cc1OCCN1CCCCC1`, the GI50 in assay [1] is 1.4 µM; in assay [5], 1.41 µM; in assay [7], 1.76 µM; in assay [8], 1.66 µM; in assay [9] it was 1.83 µM. Also, the TGI in [1] was 2.82 µM; in assay [5], 2.77 µM; in assay [7] it was 3.14 µM; in [8] it was 3.1 µM; in assay [9], 3.36 µM.

Regarding `O/N=C1/C(=C/c2ccc(F)cc2)CCCC1C(NO)c1ccc(F)cc1` (centres undefined), the TGI is over 100 µM in [1]; over 100 µM in [2]; over 100 µM in [3]; 45.2 µM in assay [4]; 49.8 µM in assay [6]; over 100 µM in [7]. The TGI in [8] and in assay [9] was over 100 µM throughout.

On to `Cc1c(NC(=O)C(=O)N=NC(=O)c2ccncc2)c(O)c2ccccc2c1O`, for which the TGI in [1] was 57 µM; in [2], 30.1 µM; in [3], 26.9 µM; in assay [4], 44.9 µM; in assay [6] it was over 82 µM; in assay [7], 31.7 µM. Also, the TGI in [8] is 48.3 µM; in [9], over 100 µM.

On to `CCCCCCC(=O)C/C(CCC(=O)N(Cc1ccccc1)Cc1ccccc1)=N\Nc1ccc([N+](=O)[O-])cc1[N+](=O)[O-]`, for which the TGI in assay [1], in assay [2], in assay [3], in assay [4], in assay [6] and in [7] was over 100 µM throughout. Also, the TGI in assay [8] and in [9] was over 100 µM in each case.

Take `CCOC(=O)c1cccc(=O)c(C(=O)OCC)c1`: the TGI in [1], in assay [2], in assay [3], in assay [4], in [6] and in assay [7] was over 100 µM in each case. The TGI in assay [9] is over 100 µM.

Consider `S=c1[nH]nc(COc2ccc(Cl)cc2)o1`, for which the TGI in assay [1] was over 100 µM; in assay [2], over 100 µM; in [3], 98.6 µM; in [4], over 100 µM; in assay [6], over 100 µM; in [7], over 100 µM. Further, the TGI in assay [8] and in assay [9] was over 100 µM in each case.

Take `CC(Cl)(/C=C/Cl)C(Cl)/C=C/C(Cl)(CCl)CBr` (centres undefined): the TGI stood at 28.1 µM in assay [1]; 3.39 µM in [2]; 4.24 µM in assay [3]; 4.66 µM in assay [4]; 7.31 µM in assay [6]; 8.27 µM in [7]. The TGI in [8] was 27.3 µM; in assay [9], 20.5 µM.

Take `COc1ccc(-c2oc3cc(O)c(OC)c(O)c3c(=O)c2OC2OC(CO)C(O)C(O)C2O)cc1` (centres undefined): the TGI in [2], in assay [3], in assay [4], in assay [6], in [7] and in assay [8] was over 100 µM throughout. In addition, the TGI in assay [9] was over 100 µM.

Turning to `N#Cc1ccccc1NC(=O)C(=O)C(C(=O)c1ccccc1-c1ccccc1)C1OC(=O)c2ccccc21` (centres undefined), the TGI in [2] stood at 23 µM; in assay [4], 97.3 µM; in [6], 79.7 µM; in [7], 40.4 µM.

In the case of `CC(=O)[CH-]C(=O)c1ccccc1.CC(=O)[CH-]C(=O)c1ccccc1.CCN(CC)CC[O-].CCN(CC)CC[O-].Cl.[Ti+4]`, the GI50 is 40.1 µM in assay [1]; 27.2 µM in [2]; 36.4 µM in assay [3]; 24 µM in assay [4]; 38.3 µM in [6]; 32.9 µM in assay [7]. The GI50 in assay [8] is 23.7 µM. Also, the TGI was over 100 µM in assay [1]; over 100 µM in [2]; over 100 µM in assay [3]; 59.6 µM in [4]; over 100 µM in assay [6]; 92.6 µM in assay [7]. The same compound showed a TGI in [8] of 69.5 µM.

Consider `CCOC(=O)Cc1c(Cc2[nH]c(C(=O)OCc3ccccc3)c(CC(=O)OCC)c2CC(=O)OCC)[nH]c(C(=O)OCc2ccccc2)c1CC(=O)OCC`, for which the TGI in [1], in assay [2], in assay [3], in assay [4], in assay [6] and in assay [7] was over 100 µM each time. This compound yielded a TGI in assay [8] of over 100 µM.
